Data taken from patent US20100267561A1, “HERBICIDAL PYRIDAZINONE DERIVATIVES” (priority 2007, published 2010).

Assays:
Assay type in all cases: in vivo
[1] = test system: Russian thistle (Salsola iberica); test: Test B pre-/postemergence plant response; settings: Preemergence
Summary of the method: (§1)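 Preemergence and postemergence (plants 2-18 cm, 1- to 4-leaf stage) applications used test chemicals in a non-phytotoxic solvent with surfactant. Plants were held in a greenhouse 13 to 15 days, then rated visually against controls on a 0-100 scale (0 no effect, 100 complete control).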

[2] = test system: large crabgrass (Digitaria sanguinalis); test: Test B pre-/postemergence plant response; settings: Preemergence
Summary of the method: as §1

[3] = test system: cocklebur (Xanthium strumarium); test: Test B pre-/postemergence plant response; settings: Preemergence
Summary of the method: as §1

[4] = test system: green foxtail (Setaria viridis); test: Test C pre-/postemergence plant response; settings: Preemergence
Summary of the method: (§2)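 Test chemicals in a non-phytotoxic solvent with surfactant were applied preemergence, and some were also applied postemergence to plants 2–18 cm tall (1- to 4-leaf stage). Visual ratings against controls were made after 15–25 days in a controlled environment, on a 0–100 scale where 100 means complete control.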

[5] = test system: winter barley (Hordeum vulgare); test: Test C pre-/postemergence plant response; settings: Preemergence
Summary of the method: as §2

[6] = test system: winter wheat (Triticum aestivum); test: Test C pre-/postemergence plant response; settings: Preemergence
Summary of the method: as §2

[7] = test system: Italian ryegrass (Lolium multiflorum); test: Test C pre-/postemergence plant response; settings: Preemergence
Summary of the method: as §2

[8] = test system: blackgrass (Alopecurus myosuroides); test: Test C pre-/postemergence plant response; settings: Preemergence
Summary of the method: as §2

[9] = test system: downy bromegrass (Bromus tectorum); test: Test C pre-/postemergence plant response; settings: Preemergence
Summary of the method: as §2

[10] = test system: pigweed (Amaranthus retroflexus); test: Test C pre-/postemergence plant response; settings: Preemergence, scale 0 to 100 (0 no effect, 100 complete control)
Summary of the method: as §2

[11] = test system: wild mustard (Sinapis arvensis); test: Test C pre-/postemergence plant response; settings: Preemergence
Summary of the method: as §2

[12] = test system: spring wheat (Triticum aestivum); test: Test C pre-/postemergence plant response; settings: Preemergence
Summary of the method: as §2

[13] = test system: spring barley (Hordeum vulgare); test: Test C pre-/postemergence plant response; settings: Preemergence
Summary of the method: as §2

[14] = 31 g ai/ha, scale 0 to 100 (0 no effect, 100 complete control)
[15] = 31 g ai/ha, 0 to 100 scale, 0 no effect, 100 complete control
[16] = 8 g ai/ha, scale 0 to 100 (0 no effect, 100 complete control)
[17] = 16 g ai/ha, scale 0 to 100 (0 no effect, 100 complete control)
[18] = 62 g ai/ha, scale 0 to 100, 0 no effect, 100 complete control

Cc1cc(-c2ccc(Cl)cc2)nn1-c1c(OS(=O)(=O)c2ccc(Cl)s2)cnn(C)c1=O [Compound 55]
98: Crabgrass, Large plant response rating ([2]; 16 g ai/ha, scale 0 to 100)
90: Plant response rating, Ryegrass, Italian [7, 18]
20: Crabgrass, Large plant response rating ([2]; 8 g ai/ha, scale 0 to 100) | Plant response rating, Foxtail, Green [4, 16]
60: Plant response rating, Barley, Winter [5, 18] | Plant response rating, Wheat, Winter [6, 18] | Plant response rating, Wheat, Spring [12, 18]
40: Plant response rating, Foxtail, Green [4, 17] | Plant response rating, Blackgrass [8, 17] | Plant response rating, Bromegrass, Downy [9, 18]
50: Plant response rating, Wheat, Spring [12, 14]
0: Plant response rating, Russian Thistle [1, 14] | Plant response rating, Russian Thistle ([1]; 62 g ai/ha, scale 0 to 100) | Russian Thistle plant response rating ([1]; 8 g ai/ha, scale 0 to 100) | Russian Thistle plant response rating ([1]; 16 g ai/ha, scale 0 to 100) | Plant response rating, Cocklebur [3, 15] | Plant response rating, Cocklebur ([3]; 62 g ai/ha, scale 0 to 100) | Cocklebur plant response rating ([3]; 8 g ai/ha, scale 0 to 100) | Plant response rating, Barley, Winter [5, 16] | Plant response rating, Barley, Winter [5, 17] | Plant response rating, Barley, Winter [5, 14] | Plant response rating, Wheat, Winter [6, 16] | Plant response rating, Wheat, Winter [6, 17] | Plant response rating, Wheat, Winter [6, 14] | Plant response rating, Ryegrass, Italian [7, 16] | Plant response rating, Ryegrass, Italian [7, 17] | Plant response rating, Bromegrass, Downy [9, 16] | Plant response rating, Bromegrass, Downy [9, 17] | Plant response rating, Bromegrass, Downy [9, 14] | Plant response rating, Pigweed ([10]; 8 g ai/ha) | Plant response rating, Pigweed ([10]; 16 g ai/ha) | Plant response rating, Pigweed ([10]; 31 g ai/ha) | Plant response rating, Mustard, Wild [11, 16] | Plant response rating, Mustard, Wild [11, 17] | Plant response rating, Mustard, Wild [11, 14] | Plant response rating, Mustard, Wild [11, 18] | Plant response rating, Wheat, Spring [12, 16] | Plant response rating, Wheat, Spring [12, 17] | Plant response rating, Barley, Spring [13, 16] | Plant response rating, Barley, Spring [13, 17] | Plant response rating, Barley, Spring [13, 14]
95: Plant response rating, Blackgrass [8, 18]
70: Plant response rating, Barley, Spring [13, 18]
100: Plant response rating, Crabgrass, Large [2, 15] | Plant response rating, Crabgrass, Large ([2]; 62 g ai/ha, scale 0 to 100) | Plant response rating, Foxtail, Green [4, 14] | Plant response rating, Foxtail, Green [4, 18]
80: Plant response rating, Blackgrass [8, 14]
